# Read-outs that look alike come from different tables or passages of the source.
# What was measured:
# [1] = target: CDK2/Cyclin E1 full length (Homo sapiens (Human), UniProt P24941); experiment: CDK2/Cyclin E1 full length mobility shift assay; assay type: biochemical
# CDK6/cyclin D3 = CDK6/cyclin D3 (Homo sapiens (Human), UniProt Q00534); experiment: CDK6/Cyclin D3 mobility shift assay; conditions: Biochemical Assay: CDK6/cyclin D3
# Excerpt: CDK6/Cyclin D3 Mobility Shift Assay
# CDK1/cyclin A2 = CDK1/cyclin A2 (Homo sapiens (Human), UniProt P06493); experiment: CDK1/cyclin A2 biochemical assay
# CDK9 = CDK9 (Homo sapiens (Human), UniProt P50750); experiment: CDK9 biochemical assay
# GSK3β (H350L) [2] = target: T1, GSK3β (H350L) (Homo sapiens (Human), UniProt P49841); conditions: read-out: GSK3β Ki
# Experimental: (§1) The assay was initiated with the addition of ATP, following 15 minutes pre-incubation of enzyme and inhibitor at room temperature in the reaction mixture. The reaction was stopped after 30 minutes at room temperature by the addition of 50 μL of 80 mM EDTA.
# GSK3β (H350L) [3] = target: T1, GSK3β (H350L); experiment: biochemical; conditions: GSK3β Ki (nM)
# Experimental: as §1
# T1 sequence (P49841 whole entry, stated change not applied): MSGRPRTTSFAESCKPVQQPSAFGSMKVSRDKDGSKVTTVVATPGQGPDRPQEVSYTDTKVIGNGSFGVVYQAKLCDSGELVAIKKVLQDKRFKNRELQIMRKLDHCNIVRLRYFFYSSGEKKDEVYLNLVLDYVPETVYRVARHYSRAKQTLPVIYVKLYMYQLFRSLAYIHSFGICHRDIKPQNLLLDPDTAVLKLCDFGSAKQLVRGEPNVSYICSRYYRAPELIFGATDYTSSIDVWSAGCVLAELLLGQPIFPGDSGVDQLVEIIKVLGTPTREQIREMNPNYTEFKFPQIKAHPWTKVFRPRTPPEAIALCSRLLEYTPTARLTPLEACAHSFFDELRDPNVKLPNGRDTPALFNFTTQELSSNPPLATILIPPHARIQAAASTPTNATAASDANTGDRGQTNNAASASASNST
# CDK9, sequence (P50750 whole entry, looked up): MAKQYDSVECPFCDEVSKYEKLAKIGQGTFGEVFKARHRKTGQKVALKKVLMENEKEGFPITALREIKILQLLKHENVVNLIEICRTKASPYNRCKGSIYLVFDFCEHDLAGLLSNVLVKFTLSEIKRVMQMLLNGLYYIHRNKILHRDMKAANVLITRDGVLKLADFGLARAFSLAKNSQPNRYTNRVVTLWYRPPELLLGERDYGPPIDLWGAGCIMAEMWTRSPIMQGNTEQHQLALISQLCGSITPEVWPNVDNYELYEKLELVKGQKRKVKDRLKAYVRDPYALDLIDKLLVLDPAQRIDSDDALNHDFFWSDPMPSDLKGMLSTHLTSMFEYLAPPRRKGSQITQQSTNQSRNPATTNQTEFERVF
# CDK9, sequence (O60563 whole entry partner, looked up): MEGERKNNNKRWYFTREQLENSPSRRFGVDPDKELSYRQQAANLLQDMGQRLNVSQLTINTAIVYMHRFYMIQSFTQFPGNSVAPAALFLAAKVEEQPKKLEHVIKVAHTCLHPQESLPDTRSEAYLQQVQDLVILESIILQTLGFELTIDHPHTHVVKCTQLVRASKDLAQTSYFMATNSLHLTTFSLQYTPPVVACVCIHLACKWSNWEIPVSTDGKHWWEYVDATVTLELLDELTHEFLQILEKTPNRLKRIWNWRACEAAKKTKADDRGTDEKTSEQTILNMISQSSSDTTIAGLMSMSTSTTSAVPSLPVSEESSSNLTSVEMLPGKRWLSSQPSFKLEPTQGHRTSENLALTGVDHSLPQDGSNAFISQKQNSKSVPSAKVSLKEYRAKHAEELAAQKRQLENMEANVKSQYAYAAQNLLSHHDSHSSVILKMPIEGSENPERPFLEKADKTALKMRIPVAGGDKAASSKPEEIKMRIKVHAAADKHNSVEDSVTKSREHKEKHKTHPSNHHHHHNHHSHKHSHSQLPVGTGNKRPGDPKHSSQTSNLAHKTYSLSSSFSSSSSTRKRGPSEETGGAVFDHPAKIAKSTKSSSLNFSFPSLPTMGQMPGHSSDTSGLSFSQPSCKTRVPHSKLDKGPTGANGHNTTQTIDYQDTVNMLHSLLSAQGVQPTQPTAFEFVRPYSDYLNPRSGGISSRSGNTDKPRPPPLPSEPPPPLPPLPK
# CDK6/cyclin D3, sequence (Q00534 whole entry, looked up): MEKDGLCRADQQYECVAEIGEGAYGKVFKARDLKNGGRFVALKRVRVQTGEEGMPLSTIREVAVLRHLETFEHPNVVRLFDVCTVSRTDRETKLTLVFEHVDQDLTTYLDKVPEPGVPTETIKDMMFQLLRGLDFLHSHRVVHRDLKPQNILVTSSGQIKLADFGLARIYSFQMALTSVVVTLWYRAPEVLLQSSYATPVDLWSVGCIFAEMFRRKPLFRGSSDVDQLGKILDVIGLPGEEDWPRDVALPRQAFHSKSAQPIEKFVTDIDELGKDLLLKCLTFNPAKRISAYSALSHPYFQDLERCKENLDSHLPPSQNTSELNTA
# CDK6/cyclin D3, sequence (P30281 whole entry partner, looked up): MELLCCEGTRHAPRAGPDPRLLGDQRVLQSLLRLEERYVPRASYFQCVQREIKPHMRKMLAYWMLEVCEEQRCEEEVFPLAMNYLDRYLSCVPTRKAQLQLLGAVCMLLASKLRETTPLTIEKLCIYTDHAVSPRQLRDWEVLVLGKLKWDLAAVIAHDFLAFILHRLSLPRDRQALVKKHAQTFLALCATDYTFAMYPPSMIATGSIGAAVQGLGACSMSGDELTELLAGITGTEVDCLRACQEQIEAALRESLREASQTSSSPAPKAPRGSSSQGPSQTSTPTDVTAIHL
# CDK1/cyclin A2, sequence (P06493 whole entry, looked up): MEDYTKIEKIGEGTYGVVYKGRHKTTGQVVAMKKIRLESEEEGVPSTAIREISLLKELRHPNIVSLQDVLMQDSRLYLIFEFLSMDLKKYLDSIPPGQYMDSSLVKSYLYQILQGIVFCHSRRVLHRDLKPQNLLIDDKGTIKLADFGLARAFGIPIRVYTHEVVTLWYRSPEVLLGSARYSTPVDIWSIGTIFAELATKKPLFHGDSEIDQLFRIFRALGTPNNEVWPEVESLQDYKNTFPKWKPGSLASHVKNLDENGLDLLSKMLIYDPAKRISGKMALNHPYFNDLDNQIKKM
# CDK1/cyclin A2, sequence (P20248 whole entry partner, looked up): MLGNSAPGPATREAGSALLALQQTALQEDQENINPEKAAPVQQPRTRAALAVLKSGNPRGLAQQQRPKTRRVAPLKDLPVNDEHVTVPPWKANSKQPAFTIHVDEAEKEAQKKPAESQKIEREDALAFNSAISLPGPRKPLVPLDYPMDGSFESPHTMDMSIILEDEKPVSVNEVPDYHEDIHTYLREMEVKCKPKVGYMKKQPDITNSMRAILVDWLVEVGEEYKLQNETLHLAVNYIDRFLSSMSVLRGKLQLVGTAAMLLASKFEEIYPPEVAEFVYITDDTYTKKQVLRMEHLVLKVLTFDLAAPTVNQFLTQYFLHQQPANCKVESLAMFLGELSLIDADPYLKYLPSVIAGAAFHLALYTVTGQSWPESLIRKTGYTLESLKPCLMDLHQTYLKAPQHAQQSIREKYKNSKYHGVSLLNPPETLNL
Ki [1] [nM],Ki (GSK3β (H350L) [3]) [nM],Structure (SMILES),Ki (CDK6/cyclin D3) [nM],Ki (CDK1/cyclin A2) [nM],Ki (CDK9) [nM],Ki (GSK3β (H350L) [2]) [nM]
0.08,5,"CCC1(C)CCN1C(=O)O[C@@H]1CC[C@H](c2cc(NC(=O)Cc3cc(C)no3)n[nH]2)C1 (single isomer, unassigned) [Example 604]",–,–,–,–
1.48,32.9,"Cc1cnc(CC(=O)Nc2cc([C@H]3CC[C@@H](OC(=O)NC(C)CC(F)(F)F)C3)[nH]n2)o1 (single isomer, unassigned) [Example 81]",–,–,–,–
0.44,14.7,"CC(CC(F)(F)F)N(C)C(=O)O[C@@H]1CC[C@H](c2cc(NC(=O)Cc3cnn(C)c3)n[nH]2)C1 (single isomer, unassigned) [Example 413]",–,–,–,–
0.42,3.44,"CC(CC(F)(F)F)N(C)C(=O)O[C@@H]1CC[C@H](c2cc(NC(=O)Cc3cnn(C)c3)n[nH]2)C1 (single isomer, unassigned) [Example 414]",–,–,–,–
0.3,13.2,"Cc1cnc(CC(=O)Nc2cc([C@H]3CC[C@@H](OC(=O)NC(C)CC(F)(F)F)C3)[nH]n2)cn1 (single isomer, unassigned) [Example 74]",–,–,–,–
1.34,10.7,"CCC(CO)CNC(=O)O[C@@H]1CC[C@H](c2cc(NC(=O)Cc3cc(F)cc(F)c3)n[nH]2)C1 (single isomer, unassigned) [Example 537]",–,–,–,–
0.59,18.2,"Cc1cc(CC(=O)Nc2cc([C@H]3CC[C@@H](OC(=O)N4CCC4C)C3)[nH]n2)on1 (single isomer, unassigned) [Example 589]",–,–,–,–
0.19,12.6,"Cc1cnc(CC(=O)Nc2cc([C@H]3CC[C@@H](OC(=O)NC(C)CC(F)(F)F)C3)[nH]n2)o1 (single isomer, unassigned) [Example 82]",–,–,–,–
0.35,31.3,"Cc1ccc(C(=O)Nc2cc([C@H]3CC[C@@H](OC(=O)NC(C)CC(F)(F)F)C3)[nH]n2)cn1 (single isomer, unassigned) [Example 70]",–,–,–,–
0.1,4.96,"Cc1ccc(CC(=O)Nc2cc([C@H]3CC[C@@H](OC(=O)NC(C)CC(F)(F)F)C3)[nH]n2)cn1 (single isomer, unassigned) [Example 76]",–,–,–,–
1.01,33.8,"Cc1cc(CC(=O)Nc2cc([C@H]3CC[C@@H](OC(=O)NC(C)CC(F)(F)F)C3)[nH]n2)on1 (single isomer, unassigned) [Example 71]",–,–,–,–
0.26,20.6,"CCCNC(=O)O[C@H]1CC[C@@H](c2cc(NC(=O)C3COc4ccccc43)n[nH]2)C1 (single isomer, unassigned) [Example 24]",–,–,–,–

# Second part, the compound before the results:
Structure (SMILES),Ki [1] [nM],Ki (GSK3β (H350L) [3]) [nM],Ki (CDK6/cyclin D3) [nM],Ki (CDK1/cyclin A2) [nM],Ki (CDK9) [nM],Ki (GSK3β (H350L) [2]) [nM]
"Cc1cc(CC(=O)Nc2cc([C@H]3CC[C@@H](OC(=O)NC4(C)CC4)C3)[nH]n2)on1 [Example 15, (1R,3S)-3-(3-{[(3-methyl-1,2-oxazol-5-yl)acetyl]amino}-1H-pyrazol-5-yl)cyclopentyl (1-methylcyclopropyl)carbamate]",0.17,–,58.6,16.4,6.3,29.3
"Cc1cnc(CC(=O)Nc2cc([C@@H]3CC[C@H](OC(=O)NC4(C)CCOC4)C3)[nH]n2)o1 (single isomer, unassigned) [Example 475]",0.83,23.9,–,–,–,–
"CC1(NC(=O)O[C@@H]2CC[C@H](c3cc(NC(=O)Cc4cnc(C(F)(F)F)cn4)n[nH]3)C2)CCOC1 (single isomer, unassigned) [Example 494]",1.02,53.3,–,–,–,–
"COc1ccc(S(C)(=O)=O)c(CC(=O)Nc2cc([C@H]3CC[C@@H](OC(=O)NC(C)C(F)(F)F)C3)[nH]n2)c1 (single isomer, unassigned) [Example 291]",0.43,> 47.6,–,–,–,–
"Cc1cnc(CC(=O)Nc2cc([C@@H]3CC[C@H](OC(=O)NC4(C)CCOC4)C3)[nH]n2)o1 (single isomer, unassigned) [Example 476]",0.45,30.9,–,–,–,–
"CCC(NC(=O)O[C@@H]1CC[C@H](c2cc(NC(=O)Cc3cc(C)no3)n[nH]2)C1)C(F)(F)F (single isomer, unassigned) [Example 396]",2.1,139,–,–,–,–
"CC(CC(F)(F)F)NC(=O)O[C@@H]1CC[C@H](c2cc(NC(=O)Cc3cnn(C(C)C)c3)n[nH]2)C1 (single isomer, unassigned) [Example 408]",0.29,17.9,–,–,–,–
"COCc1cc(C(=O)Nc2cc([C@H]3CC[C@@H](OC(=O)NC(C)C)C3)[nH]n2)n(C)n1 [Example 13, (1R,3S)-3-[3-({[3-(methoxymethyl)-1-methyl-1H-pyrazol-5-yl]carbonyl}amino)-1H-pyrazol-5-yl]cyclopentyl propan-2-ylcarbamate]",–,–,465,–,177,538
"CCC(CO)CNC(=O)O[C@@H]1CC[C@H](c2cc(NC(=O)Cc3ccc(OC)nc3)n[nH]2)C1 (single isomer, unassigned) [Example 533]",0.77,1.41,–,–,–,–
"CCC(NC(=O)O[C@@H]1CC[C@H](c2cc(NC(=O)Cc3cnc(C)s3)n[nH]2)C1)C(F)(F)F (single isomer, unassigned) [Example 403]",1.76,76.1,–,–,–,–
"Cc1ccc(CC(=O)Nc2cc([C@H]3CC[C@@H](OC(=O)NC(C)C(C)(F)F)C3)[nH]n2)cn1 (single isomer, unassigned) [Example 388]",2.34,36.9,–,–,–,–
"CCC(NC(=O)O[C@@H]1CC[C@H](c2cc(NC(=O)Cc3ccc(C)nc3)n[nH]2)C1)C(F)(F)F (single isomer, unassigned) [Example 399]",0.47,68.8,–,–,–,–
